Assay results as given in publication PMC5218480 (PLoS ONE, 2017).

System: MV-4-11 cells
Assay: Gene expression microarray analysis (Affymetrix PrimeView) and GSEA
Assay type: cell-based, human
Settings: ProbeSet 11717523_x_at; LIST B

Nc1ccc(-c2cccs2)cc1NC(=O)c1ccc2c(c1)cc(C1CC1)n2CCN1CCOCC1 [ACY-1035]
RFU, TMEM50B: 85.32 RFU
